Source: patent publication US20220160705A1, “METHODS FOR CONTROLLING PROSTAGLANDIN-MEDIATED BIOLOGICAL PROCESSES” (Cornell University, priority 2019, published 2022)
Entries after “also recorded” stand apart in the source; their conditions may differ.

Experiments:
[1] = tested on: IRE1α-XBP1 signaling; experiment: Xbp1s and Ptges mRNA in peritoneal leukocytes after acetic acid injection (RT-qPCR); format: in vivo, C57BL/6J mice; conditions: i.p. 6 hours and 30 minutes before 0.9% v/v acetic acid; KIRA6 25 mg/kg, MKC8866 20 mg/kg; vs vehicle
Procedure: Total RNA was isolated using RNeasy Mini kit or QIAzol lysis reagent (Qiagen) according to the manufacturer's instructions. RNA (0.1-1 μg) was reverse-transcribed to generate cDNA using the qScript cDNA synthesis kit (Quantabio). Quantitative RT-PCR was performed using PerfeCTa SYBR green fastmix (Quantabio) and TaqMan Universal PCR master mix (Life Technologies) on a QuantStudio 6 Flex real-time PCR system (Applied Biosystems). Normalized gene expression was calculated by comparative threshold cycle method using ACTB or Actb as a control. Xbp1 splicing assays were performed as described by Lee et al. (Proc Natl Acad Sci USA 100, 9946 (Aug. 19, 2003)). PCR products were separated by electrophoresis through a 2.5% agarose gel and visualized by ethidium bromide staining. Primers used in this study are described in Table 9.
(§1) To determine if pharmacological disabling of IRE1α-XBP1 signaling could reduce inflammatory visceral pain, two commercially available inhibitors of IRE1α were employed: the kinase domain-specific inhibitor KIRA6 (25 mg/kg) and the RNAse domain-specific inhibitor MKC8866 (20 mg/kg).
(§2) These inhibitors were independently administered intraperitoneally to C57BL/6J mice 6 hours and 30 minutes before acetic acid injection, and writhing behaviors were recorded for 30 minutes.

[2] = tested on: C57BL/6J mice; experiment: Acetic acid-induced writhing model of inflammatory visceral pain; format: in vivo; conditions: i.p. 6 hours and 30 minutes before 0.9% v/v acetic acid (5 ml/kg); recorded for 30 minutes; KIRA6 25 mg/kg, MKC8866 20 mg/kg, Celecoxib 20 mg/kg; vs vehicle
Procedure: (§3) All behavioral measurements were performed by a blinded observer before and after surgery (postoperative days 1-21) or acetic acid intraperitoneal injection (15-30 min). Animals were acclimated to the testing devices and/or places for 3 days, and baseline measurements were taken for at least 4 consecutive days before the surgery or acetic acid.
Writhing spontaneous pain behaviors were evaluated after intraperitoneal injection of 0.9% acetic acid (v/v, 5 ml/kg). The number of writhing responses was quantified immediately after acetic acid injection for 30 min in 5 min intervals by an observer blinded to genotype. Writings induced acetic acid are overt stretching behaviors indicative of abdominal pain, a phenomenon that is dependent upon mPGES-1 and PGE2 (Kamei et al. J Biol Chem 279, 33684 (Aug. 6, 2004); Trebino et al. Proc Nat Acad Sci USA 100, 9044 (Jul. 22, 2003)).
as §1, §2

[3] = tested on: C57BL/6J mice; experiment: Paw incision model of post-surgical pain, behavioral tests; format: in vivo; conditions: i.p. 6 hours and 30 minutes before paw incision, KIRA6 25 mg/kg, MKC8866 20 mg/kg; for flinching activity after paw incision / grimace score post-surgery / guarding score post-surgery / hind paw weight bearing distribution after paw incision / mechanical hypersensitivity (mechanical threshold) after paw incision / rearing activity after paw incision: Celecoxib 20 mg/kg, vs vehicle; for post-operative pain behaviors: figure legend
Procedure: Plantar incision surgery was performed as described by Pogatzki & Raja (Anesthesiology 99, 1023 (October 2003)). Briefly, mice were anesthetized with isoflurane in oxygen (4% induction, 1.5%-2% for maintenance) and the right hind paw was aseptically cleaned with 10% povidone-iodine solution. Then, a 5 mm incision was made in the glabrous hind-paw skin from the heel to the base of the toes using a No. 11 scalpel and sterile technique. The underlying muscle and ligaments were elevated with a curved forceps and stretched for 6-8 seconds, without incising them. The incision was closed using 5.0 nylon mattress sutures.
as §3
Mice were placed in individual acrylic chambers on an elevated mesh floor for 30-45 min before testing. Two spontaneous pain-relate behaviors were evaluated, rearings and paw flinches. Following the acclimatization period, the number of total vertical rearings and paw flinches were quantified during a 2-min period. Vertical rearings were defined as the number of times that the animal stood supporting its weight on both hind limbs. Vertical rearings are a normal behavior in rodents, thus a reduction of this behavior is indicative of a protective way to prevent pain due to movement, which mimics pain induced by surgeries in humans. Spontaneous flinching of the affected paw was quantified every time that the animal shacked the affected paw without any stimulation. Flinches of the injured paw is a pain-related behavior that is indicative of breakthrough pain, similar to intense spontaneous spike of pain in humans with postoperative pain.
Mechanical hypersensitivity was assessed after quantification of vertical rearings and spontaneous flinching. Mechanical withdrawal thresholds were calculated using the up-down method and applying force with calibrated Von Frey filaments (0.07-g, 0.17-g, 0.40-g, 0.60-g, 1.04-g, 1.37-g, and 2.0-g, Stoeling, Wood Dale, Ill., USA) to the plantar aspect of the paw for 5 seconds. Paw withdraws or flinching in response to a given applied force was noted as a positive response.
Hind paw weight bearing distribution was determined using an incapacitance tester apparatus (Stoelting, Ill., version 5.64). This is a test for non-reflexive behaviors that represents a spontaneous pain-related behavior that mimics postoperative pain behaviors in humans (protection of the surgery site from normal activities). Before surgery, animals were habituated for at least 3 days to the apparatus, in which animals stand with each hind paw resting on individual weight plates inside an acrylic chamber. The apparatus measures the body weight distributed between the two hind paws over a 3 second period and provides the average measurement. The average value of each hind paw was used to determine the weight distribution ratio (ispsilateral/contralateral side). A ratio below one indicates a greater weight bearing on the contralateral paw and was therefore considered as a pain-related behavior.
To determine whether pharmacological targeting of IRE1α could also modulate post-surgical pain. KIRA6 (FIG. 9A-9F) or MKC8866 (FIG. 10) was administered i.p. 6 hours and 30 minutes prior to paw incision surgery, and pain responses were monitored thereafter. […] Consistent with our results using conditional IRE1α-deficient mice, mechanical hypersensitivity remained unaltered upon administration of IRE1α inhibitors (FIGS. 9F and 10F). As a positive control, we administered equimolar amounts (20 mg/kg) of Celecoxib following the same scheme and route described above. […]

| Structure (SMILES) | Ptges expression in peritoneal leukocytes [1] | Xbp1s expression in peritoneal leukocytes [1] | number of writhings after acetic acid injection [2] | flinching activity after paw incision [3] | grimace score post-surgery [3] | guarding score post-surgery [3] | hind paw weight bearing distribution after paw incision [3] | mechanical hypersensitivity (mechanical threshold) after paw incision [3] | rearing activity after paw incision [3] | post-operative pain behaviors [3] |
| --- | --- | --- | --- | --- | --- | --- | --- | --- | --- | --- |
| CC(C)(C)c1nc(-c2ccc(NC(=O)Nc3cccc(C(F)(F)F)c3)c3ccccc23)c2c(N)nccn12 [KIRA6] | significantly reduced | significantly reduced | reduced; also recorded: decreased | reduced | significantly reduced | significantly reduced | more balanced | unaltered | unchanged | reduces |
| COc1cc2c(C)c(CC(=O)N3CCOCC3)c(=O)oc2c(C=O)c1O [MKC8866] | significantly reduced | significantly reduced | reduced; also recorded: decreased | reduced | significantly reduced | significantly reduced | more balanced | unaltered | unchanged | reduces |
